Laboratory results reported in patent US20080194540A1, “Use of a Tricyclic Antidepressant Drug For Promoting Endocytosis” (RINA NETZWERK RNA-TECHNOLOGIEN GMBH, priority 2003, published 2008).

What was measured:
[1] = test system: yeast cells (strain RPY10); assay: Yeast system transfection with pFL1 plasmid (cfu relative to negative control); format: cell-based, Saccharomyces cerevisiae; settings: FIG. 1a, concentration series, ordinate values standardized to chloroquine
Procedure: A first cell system is a yeast system. The transfection protocol corresponded to that of the document B. Neukamm et al., Biochimica et Biophysica Acta 1572:67-76 (2002). For the measurements, a lab robot (Zinsser, Frankfurt, Germany) was used, and a pipetting protocol was prepared.
Yeast precultures were drawn from cultures of a −70° C. glycerol stock of the strain RPY10 (R. C. Piper et al., Eur J Cell Biol 65:305-318 (1995)) for 72 hours. In the main culture, the cells were drawn over night in YPD medium up to a cell density of 5 to 8·10^7 cells/ml. 12·10^9 cells were harvested and washed twice with the same volume of distilled water. The cells were made competent for the transfection by soaking in distilled water for 30 minutes at 4° C. The competent cells were harvested and resuspended in 10 ml 34% sucrose, adjusted with HCl to pH 4. The suspension was immediately transferred into a sterilized 40 ml glass tube (Zinsser Analytik, Frankfurt, Germany), which were then sealed by an aluminum foil. The tubes were then placed on a shaker on the platform of the lab robot and treated for 40 seconds at 300 rpm. The suspension was automatically distributed into the wells of a 96-well microtiter plate (80 μl each by using stainless steel tips).
The subsequent pipetting protocol was as follows. First, solutions of a substance according to the invention or of a reference substance in different concentrations were added. Exactly 5 minutes later, 10 μl of a solution or suspension of the pFL1 plasmid (0.15 μg/μl) of example 1 were automatically added to the mixture of cells and substance. Some wells were used for a negative control, and only the used solvents and the plasmid were added to the cell suspension, not however the substance. After termination of the pipetting protocol, the plate was covered and placed on the Desyre mixer (Zinsser Analytik). After vortexing for 1 minute at 1,300 rpm, an incubation was performed at 28° C. for 18-20 hours. After the incubation, 110 μl distilled water each were slowly added. Then the cells of each well were transferred to 6-well plates (PS Macroplate, Greiner), filled up with 4 ml WMIXura (Neukamm et al., see above). The wells of the microtiter plate were each washed with 50 μl distilled water, and the washing solution was pipetted on the solid surface of the WMIXura. The macroplates were left dry and incubated for 4 days at 28° C.
Colony forming units (cfu) were then counted in every well. The obtained cfu values were related to the cfu values of the negative control. This ratio is a measure for the transfection effectivity.
For each used substance, the optimum concentration was determined by means of concentration series. For this purpose, concentration series of the respective substances were used. […]

[2] = test system: HepG2 cells; assay: Mammal cells system transfection with luciferase plasmid (luciferase activity); format: cell-based; settings: FIG. 1b, concentration series, ordinate values standardized to chloroquine
Procedure: HepG2 cells were drawn in Dulbecco's Modified Eagle Medium (DMEM, Gibco BRL, Eggenstein, Germany), supplemented with 10% FBS (fetal bovine serum, Gibco) and 1 μg/ml insulin. On day 1, the cells were removed by means of trypsination, washed and distributed on the wells of a 24-well tissue culture dish, namely 1.5·10^7 cells per well.
24 hours later the transfection tests were performed with the luciferase plasmid from example 1 with different substances at approx. 70 to 80% confluence. The supernatant was removed, and then a mixture (250 μl) containing medium, 12.5 μl dextran (10 mg/ml), 0.5 μl of the plasmid and the respective substance was added to every well. After 2.5 hours incubation at 37° C., the supernatant was removed, and 500 μl complete medium were added to each well. On day 5, the luciferase activity was measured by using the Dual Luciferase® Reporter Assay Kit (Promega, Mannheim, Germany). For this purpose, 48 hours after the transfection, the cell culture supernatants were removed, and the cells were solubilized after addition of 100 μl 1× lysis buffer per well (Promega) for 20 minutes at 20° C. on a slow shaker. 20 μl of the cell-free supernatant were transferred into a 96-well plate (Corning and Costar, Wiesbaden, Germany) and reacted with 100 μl luciferase assay buffer. The luciferase activity was measured with a luminometer (EG&G Berthold MicrolumatPlus).
For each used substance, the optimum concentration was determined by means of concentration series. For this purpose, concentration series of the respective substances were used. For comparing, corresponding measurements were performed with chloroquine. […] The ordinate values are standardized to chloroquine.

| Structure (SMILES) | optimum concentration for promoting transfection, compared to chloroquine [1] | optimum concentration for promoting transfection, compared to chloroquine [2] |
| --- | --- | --- |
| CN(C)CCC=C1c2ccccc2COc2ccccc21 [doxepine] | similarly high | similarly high |
| CNCCCC12CCC(c3ccccc31)c1ccccc12 [maprotyline] | smaller | smaller |
| CN(C)CCCN1c2ccccc2Sc2ccc(Cl)cc21 [chlorpromazine] | smaller | smaller |
| Clc1ccc2c(c1)C(N1CCNCC1)=Nc1ccccc1O2 [amoxapine] | smaller | smaller |
